Source: US20060235006A1, “Combinations, methods and compositions for treating cancer” (priority 2005, published 2006)
pIC50: −log10 of the molar value.

Legend:
K562 cells [1] = assay: Cytotoxicity of dasatinib in proliferating vs quiescent K562 cells (FIG. 3); format: cell-based; conditions: Homo sapiens
quiescent K562 cultures = conditions: concentrations readily achievable in the clinic
K562 cells [2] = assay: cells; conditions: Homo sapiens, colony formation

- pIC50 (K562 cells [2]; K562, proliferating K562 cells): > 9.00
- pIC50 (K562 cells [2]; K562, quiescent K562 cultures (nutrient depletion)): < 7.92
Structure (SMILES): Cc1nc(Nc2ncc(C(=O)Nc3c(C)cccc3Cl)s2)cc(N2CCN(CCO)CC2)n1 [dasatinib, ′N-(2-Chloro-6-methylphenyl)-2-[[6-[4-(2-hydroxyethyl)-1-piperazinyl]-2-methyl-4-pyrimidinyl]amino]-5-thiazolecarboxamide]
- pIC50 (K562 cells [1]; K562, proliferating K562 cells (FIG. 3)): 9.16
- pIC50 (K562 cells [1]; K562, quiescent K562 cells (FIG. 3)): < 7.95
- % cell kill (quiescent K562 cultures): 0%
